Experimental findings from patent US9616062B2, “Cyclin dependent kinase inhibitors and methods of use” (priority 2009, dated 2017) are described below.

Assay [1] has as its system irradiated (6.5 Gy) wild type mice (FVB/n). The experiment in a line: Myelosuppression assay: complete blood counts after sub-lethal irradiation, with or without erythropoietin. In kind it is in vivo, mouse. Conditions: PD0332991 150 mg/kg oral gavage just prior to irradiation, EPO at 72, 96, 120 h post-irradiation, day 17. As for the experimental part: FIG. 1: CDK4/6 inhibition potentiates the efficacy of erythropoietin-mediated recovery of the erythroid cell lineage following DNA damage. Cohorts (8 mice per cohort) of irradiated (6.5 Gy) wild type mice (FVB/n) are given placebo, erythropoietin (EPO), a CDK4/6 inhibitor (PD0332991), or a combination of CDK4/6 inhibitor and EPO (PD0332991+EPO). Serial blood draws are performed at day 17 after treatment and complete blood counts assessed to determine the number of red blood cells, various leukocytes subpopulations, and platelets. The effect of treatment on platelets is shown in the panel on the upper left, red blood cells (RBC) in the panel on the upper right, hemoglobin (Hb) in the panel on the lower left, and hematocrit (HCT) in the panel on the lower right. Error bars represent +/−SEM. […]
Baseline complete blood cell (CBC) anaylsis was performed on a subset of mice prior to drug administration. […] Blood was analyzed using a Hemavet CBC-Diff Veterinary Hematology System (Drew Scientific Inc., Dallas, Tex., United States of America). […]
Cohorts of FVB wild type mice were given placebo or CDK4/6 inhibitor (PD0332991, 150 mg/kg oral gavage) just prior to receiving a sub-lethal dose of irradiation (6.5 Gcy). […] Complete blood counts (CBCs) were assessed to determine the number of red blood cells, various leukocytes subpopulations and platelets.

The test system of assay [2] is primary human renal proximal tubule epithelial cells. As to the kind of experiment: γH2AX flow cytometry assay of etoposide-induced DNA damage. Type of assay: cell-based. The conditions noted are these: 0, 100 nM, 300 nM or 1 μM for 16 h, then 2.5 μM etoposide for 8 h. On the procedure: Cells were pretreated for 16 hours with PD0332991 followed by 8 hours with etoposide (Etop). Cells were collected, fixed and stained with anti-γH2AX FITC and analyzed by flow cytometry. Data was analyzed using FlowJo (Treestar, Inc., Ashland, Oreg., United States of America). The % γH2AX positive cells are shown in the accompanying graph.
Primary normal human renal proximal epithelial cells (American Type Culture Collection (ATCC), Manassas, Va., United States of America) were cultured in renal epithelial cell basal media supplemented with renal epithelial cell growth kit according to the manufacturer's recommendations. […] For the γH2AX assay, cells were fixed, permeabilized, and stained with anti-γH2AX as per γH2AX Flow Kit (Millipore, Billerica, Mass., United States of America). γH2AX levels were assessed by flow cytometry. Cell proliferation was assessed by seeding 1×10^3 cells per well in a 96-well tissue culture plate in 100 μL of growth medium. […] At the end of the recovery period, cell number was quantified using CellTiter-Glo® (Promega, Fitchburg, Wis., United States of America) or WST-1 reagent (TaKaRa Bio USA, Madison, Wis., United States of America). Cellular cytotoxicity was assessed using the TOXILIGHT™ Bioassay kit (Lonza, Basel, Switzerland) which measures cytolysis by quantifying the release of Adenylate Kinase into the culture media. […]

As to `CC(=O)c1c(C)c2cnc(Nc3ccc(N4CCNCC4)cn3)nc2n(C2CCCC2)c1=O` [PD0332991, 6-acetyl-8-cyclopentyl-5-methyl-2-(5-piperazin-1-yl-pyridin-2-ylamino)-8H-pyrido-[2,3-d]-pyrimidin-7-one], the “platelet counts (CBC)” value in assay [1] is on record as “improved platelet counts”. In addition, the “etoposide-induced DNA damage (% γH2AX positive cells)” value in assay [2] is given as “abrogates etoposide-induced DNA damage”.
